In ChEMBL document CHEMBL4813945, “Discovery and development of novel pyrimidine and pyrazolo/thieno-fused pyrimidine derivatives as potent and orally active inducible nitric oxide synthase dimerization inhibitor with efficacy for arthritis” (Eur J Med Chem, 2021) one finds inhibition, Activity and IC50 data, which are given here for 20 molecules.

Data set [1] deals with RAW264.7. In words: Antiinflammatory activity against mouse RAW264.7 cells assessed as inhibition of LPS-induced NO production at 10 uM preincubated for 1 hrs followed by LPS stimulation and measured after 24 hrs by Griess assay relative to control. The class given is functional. To be noted: time 25 hrs.
For data set [2], the system named is RAW264.7. The data set can be described thus: Cytotoxicity against mouse RAW264.7 cells at 20 uM measured after 24 hrs. In kind it is cell-based. The following applies: raw264.7, 24 h.
The test system of a further data set is L02. The data set can be described thus: Antiinflammatory activity against human L02 assessed as inhibition of LPS-induced NO production preincubated for 1 hrs followed by LPS stimulation and measured after 24 hrs by Griess assay relative to control. The class given is functional, cell-based.

SMILES strings stand for the structures.

Consider `CCCc1nn(C)c2c(N3CCOCC3)nc(/C=C/c3cccnc3)nc12`, for which the inhibition – broadly, the change of the read-out against control, counted positive when it falls – at 10 µM with RAW264.7 [1] was 69.9%. Also, the Activity entry with RAW264.7 [2] is reported as “Non-Toxic”. The IC50 (commonly the midpoint of a concentration-inhibition curve) with L02 worked out at 535 µM.

As for `COc1cc(/C=C/c2nc(O)nc(NC(C)C)n2)cc(OC)c1OC`, the inhibition at 10 µM in the data set on RAW264.7 [1] worked out at 34%. Also, the Activity result in the data set with RAW264.7 [2] is reported as “Non-Toxic”. For the same molecule, in the data set with L02, the IC50 was < 40 µM.

Regarding `CCCc1nn(C)c2c(NCCc3cccc(Cl)c3)nc(/C=C/c3ccc[n+]([O-])c3)nc12`, the inhibition at 10 µM in the data set with RAW264.7 [1] worked out at 37.5%. Moreover, the Activity entry in the data set with RAW264.7 [2] is listed as “Non-Toxic”. The IC50 in the data set on L02 came to 162 µM.

`CCCc1nn(C)c2c(N3CCOCC3)nc(/C=C/c3ccc[n+]([O-])c3)nc12`: the inhibition at 10 µM in the data set on RAW264.7 [1] is 20.8%. Also, the Activity entry in the data set with RAW264.7 [2] is “Non-Toxic”. For the same molecule, the IC50 with L02 worked out at 817 µM.

As to `CC(C)c1ccc(Nc2nc(/C=C/c3ccco3)nc3ccsc23)cc1`, the inhibition at 10 µM in the data set with RAW264.7 [1] was 31.7%. For the same molecule, the Activity result in the data set with RAW264.7 [2] is given as “Non-Toxic”. Also, the IC50 with L02 was > 1000 µM.

As for `CCCc1nn(C)c2c(NC3CC3)nc(/C=C/c3ccc[n+]([O-])c3)nc12`, in the data set with RAW264.7 [1], the inhibition at 10 µM amounted to 29.2%. Moreover, the Activity entry in the data set with RAW264.7 [2] is listed as “Non-Toxic”. Moreover, the IC50 in the data set on L02 came to 580 µM.

For `COc1cc(/C=C/c2nc(Nc3ccc(C)cc3)c3sccc3n2)cc(OC)c1OC`, the inhibition at 10 µM in the data set on RAW264.7 [1] was found to be 19.2%. Also, in the data set on RAW264.7 [2], the Activity entry is given as “Non-Toxic”. The IC50 in the data set on L02 was < 40 µM.

Consider `CCCc1nn(C)c2c(NCCc3ccccc3)nc(/C=C/c3ccc[n+]([O-])c3)nc12`, for which the inhibition at 10 µM in the data set with RAW264.7 [1] came out at 72.9%. Further, the Activity result in the data set on RAW264.7 [2] is listed as “Non-Toxic”. Moreover, the IC50 in the data set on L02 came out at 392 µM.

With `CN1CCN(c2nc(/C=C/c3ccco3)nc3ccsc23)CC1`, the inhibition at 10 µM in the data set with RAW264.7 [1] stood at 43.9%. Also, in the data set on RAW264.7 [2], the Activity entry is on record as “Non-Toxic”. Also, in the data set with L02, the IC50 was > 1000 µM.

In the case of `COc1cc(/C=C/c2nc(Cl)cc(NCCc3ccccc3)n2)cc(OC)c1OC`, the inhibition at 10 µM in the data set on RAW264.7 [1] stood at 31.2%. Further, the Activity result in the data set with RAW264.7 [2] is “Non-Toxic”. Also, the IC50 in the data set with L02 is < 40 µM.

For `C(=C\c1ccco1)/c1nc(NCc2ccccc2)c2sccc2n1`, the inhibition at 10 µM in the data set on RAW264.7 [1] turned out to be 64.1%. Besides, in the data set with RAW264.7 [2], the Activity result is on record as “Non-Toxic”. For the same molecule, in the data set with L02, the IC50 is > 1000 µM.

Regarding `COc1cc(/C=C/c2nccc(NCCc3ccc(F)cc3)n2)cc(OC)c1OC`, the inhibition at 10 µM in the data set on RAW264.7 [1] was determined as 47%. In the data set with RAW264.7 [2], the Activity result is “Non-Toxic”. Moreover, the IC50 in the data set with L02 was 544 µM.

Turning to `COc1cc(/C=C/c2nc(NCc3ccco3)c3sccc3n2)cc(OC)c1OC`, the inhibition at 10 µM in the data set on RAW264.7 [1] stood at 46.5%. In addition, in the data set on RAW264.7 [2], the Activity entry is given as “Non-Toxic”. Besides, in the data set on L02, the IC50 worked out at 189 µM.

`Fc1ccc(CNc2nc(/C=C/c3ccco3)nc3ccsc23)cc1`: in the data set on RAW264.7 [1], the inhibition at 10 µM is 59.2%. For the same molecule, the Activity result in the data set on RAW264.7 [2] is reported as “Non-Toxic”. Also, the IC50 in the data set on L02 was > 1000 µM.

In the case of `CCCc1nn(C)c2c(NCc3ccc(F)cc3)nc(/C=C/c3nc(C)c(C)nc3C)nc12`, the inhibition at 10 µM with RAW264.7 [1] amounted to 63.4%. In the data set on RAW264.7 [2], the Activity result was “Non-Toxic”. Besides, the IC50 in the data set on L02 was > 1000 µM.

Consider `Brc1ccc(CNc2nc(/C=C/c3ccccc3)nc3ccsc23)cc1`, for which the inhibition at 10 µM in the data set with RAW264.7 [1] stood at 19.5%. For the same molecule, the Activity entry with RAW264.7 [2] is reported as “Non-Toxic”. Also, the IC50 in the data set on L02 is > 1000 µM.

Consider `Fc1ccccc1CCNc1nc(/C=C/c2ccccc2)nc2ccsc12`, for which the inhibition at 10 µM in the data set on RAW264.7 [1] worked out at 29.8%. Also, in the data set on RAW264.7 [2], the Activity result is given as “Non-Toxic”. Also, the IC50 in the data set on L02 was > 1000 µM.

As to `Fc1ccc(CNc2nc(/C=C/c3ccccc3)nc3ccsc23)cc1`, the inhibition at 10 µM in the data set with RAW264.7 [1] was determined as 23.4%. Further, the Activity entry with RAW264.7 [2] is recorded as “Non-Toxic”. Further, the IC50 in the data set with L02 was > 1000 µM.

Take `CCCc1nn(C)c2c(N3CCS(=O)(=O)CC3)nc(/C=C/c3nc(C)c(C)nc3C)nc12`: the inhibition at 10 µM in the data set with RAW264.7 [1] came out at 51.6%. For the same molecule, in the data set with RAW264.7 [2], the Activity result is listed as “Non-Toxic”. Moreover, the IC50 in the data set on L02 was < 40 µM.

Take `CN(c1ccccc1)c1nc(/C=C/c2ccccc2)nc2ccsc12`: the inhibition at 10 µM with RAW264.7 [1] stood at 24.9%. Besides, the Activity result in the data set with RAW264.7 [2] is reported as “Non-Toxic”. Further, in the data set with L02, the IC50 is > 1000 µM.
